Columns and labels:
Sprague Dawley rats [1] = conditions: rat, in vivo
Sprague Dawley rats [2] = conditions: rat, in vivo; cited from earlier work

CN(C)C(=O)Oc1ccc[n+](C)c1 [pyridostigimine]
side effects in treated rats (Sprague Dawley rats [1]): no side effects
pyridostigmine-induced signs of toxicity (Sprague Dawley rats [2]): ocular discharge, nasal discharge, hypoactivity, prostration, ataxia, diarrhea, hunched posture, thin appearance and death

Source: US11129822B2 (priority 2016, dated 2021)
